Results reported in ChEMBL document CHEMBL3880386, “Combination comprising the MEK inhibitor N-{3-[3-cyclopropyl-5-(2-fluoro-4-iodo- phenylamino)-6,8-dimethyl-2,4,7-trioxo-3,4,6,7-tetrahydro-2H-pyrido[4,3-d]pyrimidin-1-yl]phenyl}acetamide and the Akt inhibitor N-{(1S)-2-amino-1-[(3-fluorophenyl)methyl]ethyl}-5-chloro-4-(4-chloro-1- …” (2014).

Key:
[1] = Growth inhibition of human SW1417 cells incubated for 72 hrs by Cell-titer-Glo reagent based assay; assay type: functional; conditions: SW1417, 72 h
[2] = Growth inhibition of human SW480 cells incubated for 72 hrs by Cell-titer-Glo reagent based assay; assay type: functional; conditions: SW480, 72 h
[3] = Growth inhibition of human SW900 cells incubated for 72 hrs by Cell-titer-Glo reagent based assay; assay type: functional; conditions: SW900, 72 h
[4] = (§1) Growth inhibition of human NCI-H1355 cells at 1:10 molar ratio of compound in presence of N-{3-[3-cyclopropyl-5-(2-fluoro-4-iodo-phenylamino)-6,8-dimethyl- 2,4,7-trioxo-3,4,6,7-tetrahydro-2H-pyrido[4,3-d]pyrimidin-1-yl]phenyl}acetamide incubated for 72 hrs by Cell-titer-Glo reagent based assay; assay type: functional; conditions: NCI-H1355, 72 h
[5] = Growth inhibition of human NCI-H727 cells incubated for 72 hrs by Cell-titer-Glo reagent based assay; assay type: functional; conditions: NCI-H727, 72 h
[6] = Growth inhibition of human A427 cells incubated for 72 hrs by Cell-titer-Glo reagent based assay; assay type: functional; conditions: A-427, 72 h
[7] = Growth inhibition of human DLD1 cells incubated for 72 hrs by Cell-titer-Glo reagent based assay; assay type: functional; conditions: DLD-1, 72 h
[8] = Growth inhibition of human EFM19 cells at 1:10 molar ratio of compound in presence of N-{3-[3-cyclopropyl-5-(2-fluoro-4-iodo-phenylamino)-6,8-dimethyl- 2,4,7-trioxo-3,4,6,7-tetrahydro-2H-pyrido[4,3-d]pyrimidin-1-yl]phenyl}acetamide incubated for 72 hrs by Cell-titer-Glo reagent based assay; assay type: functional; conditions: EFM-19, 72 h
[9] = Growth inhibition of human HCC827 cells incubated for 72 hrs by Cell-titer-Glo reagent based assay; assay type: functional; conditions: HCC827, 72 h
[10] = Growth inhibition of human A549 cells incubated for 72 hrs by Cell-titer-Glo reagent based assay; assay type: functional; conditions: A549, 72 h
[11] = Growth inhibition of human LS1034 cells incubated for 72 hrs by Cell-titer-Glo reagent based assay; assay type: functional; conditions: LS-1034, 72 h
[12] = Growth inhibition of human HOP62 cells incubated for 72 hrs by Cell-titer-Glo reagent based assay; assay type: functional; conditions: HOP-62, 72 h
[13] = Growth inhibition of human Calu3 cells incubated for 72 hrs by Cell-titer-Glo reagent based assay; assay type: functional; conditions: Calu-3, 72 h
[14] = Growth inhibition of human COLO205 cells incubated for 72 hrs by Cell-titer-Glo reagent based assay; assay type: functional; conditions: COLO 205, 72 h
[15] = Growth inhibition of human NCI-H23 cells incubated for 72 hrs by Cell-titer-Glo reagent based assay; assay type: functional; conditions: NCI-H23, 72 h
[16] = Growth inhibition of human NCI-H727 cells at 1:10 molar ratio of compound in presence of N-{3-[3-cyclopropyl-5-(2-fluoro-4-iodo-phenylamino)-6,8-dimethyl- 2,4,7-trioxo-3,4,6,7-tetrahydro-2H-pyrido[4,3-d]pyrimidin-1-yl]phenyl}acetamide incubated for 72 hrs by Cell-titer-Glo reagent based assay; assay type: functional; conditions: NCI-H727, 72 h
[17] = Growth inhibition of human SW1463 cells incubated for 72 hrs by Cell-titer-Glo reagent based assay; assay type: functional; conditions: SW1463, 72 h
[18] = Growth inhibition of human NCI-H1355 cells incubated for 72 hrs by Cell-titer-Glo reagent based assay; assay type: functional; conditions: NCI-H1355, 72 h
[19] = Growth inhibition of human MV522 cells incubated for 72 hrs by Cell-titer-Glo reagent based assay; assay type: functional; conditions: MV522, 72 h
[20] = Growth inhibition of human T84 cells incubated for 72 hrs by Cell-titer-Glo reagent based assay; assay type: functional; conditions: T84, 72 h
[21] = Growth inhibition of human NCI-H1792 cells incubated for 72 hrs by Cell-titer-Glo reagent based assay; assay type: functional; conditions: NCI-H1792, 72 h
[22] = Growth inhibition of human HT-29 cells incubated for 72 hrs by Cell-titer-Glo reagent based assay; assay type: functional; conditions: HT-29, 72 h
[23] = Growth inhibition of human SW1573 cells incubated for 72 hrs by Cell-titer-Glo reagent based assay; assay type: functional; conditions: SW1573, 72 h
[24] = Growth inhibition of human KM12 cells incubated for 72 hrs by Cell-titer-Glo reagent based assay; assay type: functional; conditions: KM12, 72 h
[25] = Growth inhibition of human SW837 cells incubated for 72 hrs by Cell-titer-Glo reagent based assay; assay type: functional; conditions: SW837, 72 h
[26] = Growth inhibition of human NCI-H1155 cells incubated for 72 hrs by Cell-titer-Glo reagent based assay; assay type: functional; conditions: NCI-H1155, 72 h
[27] = Growth inhibition of human RKO cells incubated for 72 hrs by Cell-titer-Glo reagent based assay; assay type: functional
[28] = Growth inhibition of human MDA-MB-175-VII cells incubated for 72 hrs by Cell-titer-Glo reagent based assay; assay type: functional
[29] = as §1, with “SW1463” for “NCI-H1355”, “cells assessed combination index” for “cells”; assay type: functional
[30] = Growth inhibition of human EFM19 cells incubated for 72 hrs by Cell-titer-Glo reagent based assay; assay type: functional; conditions: EFM-19, 72 h
[31] = Growth inhibition of human NCI-H1155 cells at 1:10 molar ratio of compound in presence of N-{(1S)-2-amino-1-[(3-fluorophenyl)methyl]ethyl}-5-chloro-4-(4-chloro-1-methyl-1H-pyrazol-5-yl)-2-thiophenecar- boxamide incubated for 72 hrs by Cell-titer-Glo reagent based assay; assay type: functional; conditions: NCI-H1155, 72 h
[32] = Growth inhibition of human SW900 cells at 1:10 molar ratio of compound in presence of N-{(1S)-2-amino-1-[(3-fluorophenyl)methyl]ethyl}-5-chloro-4-(4-chloro-1-methyl-1H-pyrazol-5-yl)-2-thiophenecar- boxamide incubated for 72 hrs by Cell-titer-Glo reagent based assay; assay type: functional; conditions: SW900, 72 h
[33] = Growth inhibition of human COLO205 cells assessed combination index at 1:10 molar ratio of compound in presence of N-{(1S)-2-amino-1-[(3-fluorophenyl)methyl]ethyl}-5-chloro-4-(4-chloro-1-methyl-1H-pyrazol-5-yl)-2-thiophenecar- boxamide incubated for 72 hrs by Cell-titer-Glo reagent based assay; assay type: functional, COLO 205
[34] = Growth inhibition of human HCT8 cells assessed combination index at 1:10 molar ratio of compound in presence of N-{(1S)-2-amino-1-[(3-fluorophenyl)methyl]ethyl}-5-chloro-4-(4-chloro-1-methyl-1H-pyrazol-5-yl)-2-thiophenecar- boxamide incubated for 72 hrs by Cell-titer-Glo reagent based assay; assay type: functional, HCT-8
[35] = Growth inhibition of human MV522 cells at 1:10 molar ratio of compound in presence of N-{(1S)-2-amino-1-[(3-fluorophenyl)methyl]ethyl}-5-chloro-4-(4-chloro-1-methyl-1H-pyrazol-5-yl)-2-thiophenecar- boxamide incubated for 72 hrs by Cell-titer-Glo reagent based assay; assay type: functional; conditions: MV522, 72 h
[36] = Growth inhibition of human HCC827 cells at 1:10 molar ratio of compound in presence of N-{(1S)-2-amino-1-[(3-fluorophenyl)methyl]ethyl}-5-chloro-4-(4-chloro-1-methyl-1H-pyrazol-5-yl)-2-thiophenecar- boxamide incubated for 72 hrs by Cell-titer-Glo reagent based assay; assay type: functional; conditions: HCC827, 72 h

SMILES | IC50 [1] | IC50 [2] | IC50 [3] | IC50 [5] | IC50 [6] | IC50 [7] | IC50 [9] | IC50 [10] | IC50 [11] | IC50 [12] | IC50 [13] | IC50 [14] | IC50 [15] | IC50 [17] | IC50 [18] | IC50 [19] | IC50 [20] | IC50 [21] | IC50 [22] | IC50 [23] | further results
Cn1ncc(Cl)c1-c1cc(C(=O)N[C@H](CN)Cc2cccc(F)c2)sc1Cl [AFURESERTIB] | > 10000 nM | > 10000 nM | > 10000 nM | 4800 nM | > 8000 nM | > 10000 nM | > 8000 nM | 5990 nM | 4340 nM | > 10000 nM | > 8000 nM | 2570 nM | 7120 nM | 9720 nM | 6680 nM | 3040 nM | > 10000 nM | 7310 nM | 1380 nM | > 8000 nM | IC50 [4]: 268 nM; IC50 [8]: 300 nM; IC50 [16]: 19 nM; IC50 [24]: 2250 nM; IC50 [25]: > 10000 nM; IC50 [26]: 865 nM; IC50 [27]: 1810 nM; IC50 [28]: 794 nM; CI [29]: 0.94; IC50 [30]: 430 nM
CC(=O)Nc1cccc(-n2c(=O)n(C3CC3)c(=O)c3c(Nc4ccc(I)cc4F)n(C)c(=O)c(C)c32)c1 [TRAMETINIB] | 3 nM | 37 nM | 127 nM | 2 nM | 22 nM | 632 nM | > 1000 nM | 34 nM | 5 nM | > 1000 nM | 158 nM | 1 nM | 29 nM | 4 nM | 52 nM | 2 nM | 61 nM | 53 nM | 2 nM | > 1000 nM | IC50 [31]: 10 nM; IC50 [32]: 72 nM; CI [33]: 0.88; CI [34]: 0.39; IC50 [35]: 1 nM; IC50 [24]: 23 nM; IC50 [25]: 74 nM; IC50 [26]: > 1000 nM; IC50 [36]: 40 nM; IC50 [27]: 18 nM; IC50 [28]: 96 nM; IC50 [30]: > 1000 nM
